Measurements reported in patent US20100298141A1, “SUBSTITUTED PYRIDINE N-OXIDE HERBICIDES” (E. I. DU PONT DE NEMOURS AND COMPANY, priority 2007, published 2010).

How the values were obtained:
crabgrass = assay: Test A pre-/postemergence greenhouse test; type: in vivo, Digitaria sanguinalis; conditions: for Crabgrass, Large plant response rating: 0 to 100 scale
How it was run: (§1)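 Two application timings were run side by side in the greenhouse. Before emergence, compound went onto the soil surface of loam–sand pots as a directed spray; after emergence, plants at 2–10 cm and the one- to two-leaf stage were treated. Visual injury versus controls was rated at approximately day ten.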

giant foxtail [1] = assay: Test A pre-/postemergence greenhouse test; type: in vivo, Setaria faberi; conditions: for Foxtail, Giant plant response rating: 0 to 100 scale
How it was run: as §1

morningglory = assay: Test A pre-/postemergence greenhouse test; type: in vivo, Ipomoea spp.; conditions: for Morningglory plant response rating: 0 to 100 scale
How it was run: as §1

wheat = assay: Test A pre-/postemergence greenhouse test; type: in vivo, Triticum aestivum; conditions: for Wheat plant response rating: 0 to 100 scale
How it was run: as §1

downy brome = assay: Test C pre-/postemergence test; type: in vivo, Bromus tectorum; conditions: Postemergence; for Plant response rating, Bromegrass, Downy: scale 0 to 100, 0 no effect, 100 complete control
Text: (§2) Seeds of plant species selected from blackgrass (Alopecurus myosuroides), downy brome (Bromus tectorum), green foxtail (Setaria viridis), Italian ryegrass (Lolium multiflorum), wheat (Triticum aestivum), wild oat (Avena fatua), catchweed bedstraw (Galium aparine), Russian thistle (Salsola kali), […] (Cynodon dactylon), Surinam grass (Brachiaria decumbens), cocklebur (Xanthium strumarium), corn (Zea mays), crabgrass (Digitaria sanguinalis), woolly cupgrass (Eriochloa villosa), giant foxtail (Setaria faberii), Goosegrass (Eleusin indica), johnsongrass (Sorghum halepense), kochia (Kochia scoparia), lambsquarters (Chenopodium album), morningglory (Ipomoea coccinea), eastern black nightshade (Solanum ptycanthum), yellow nutsedge (Cyperus esculentus), pigweed (Amaranthus retroflexus), common ragweed (Ambrosia elation), soybean (Glycine max), common (oilseed) sunflower (Helianthus annuus), and velvetleaf (Abutilon theophrasti) were planted and treated preemergence with test chemicals formulated in a non-phytotoxic solvent mixture which included a surfactant. At the same time, plants selected from these crop and weed species and also winter barley (Hordeum vulgare), canarygrass (Phalaris minor), and chickweed (Stellaria media) were treated with postemergence applications of some of the test chemicals formulated in the same manner. Plants ranged in height from 2 to 18 cm (1- to 4-leaf stage) for postemergence treatments. […] At time of treatment, test pots were flooded to 3 cm above the soil surface, treated by application of test compounds directly to the paddy water, and then maintained at that water depth for the duration of the test. […] A dash (-) response means no test result.

cocklebur = assay: Test C pre-/postemergence test; type: in vivo, Xanthium strumarium; conditions: for Plant response rating, Cocklebur: scale 0 to 100, 0 no effect, 100 complete control
Text: as §2

corn = assay: Test C pre-/postemergence test; type: in vivo, Zea mays; conditions: for Plant response rating, Corn: scale 0 to 100, 0 no effect, 100 complete control
Text: as §2

woolly cupgrass = assay: Test C pre-/postemergence test; type: in vivo, Eriochloa villosa; conditions: for Plant response rating, Cupgrass, Woolly: scale 0 to 100, 0 no effect, 100 complete control
Text: as §2

giant foxtail [2] = assay: Test C pre-/postemergence test; type: in vivo, Setaria faberii; conditions: for Plant response rating, Foxtail, Giant: scale 0 to 100, 0 no effect, 100 complete control
Text: as §2

Goosegrass = assay: Test C pre-/postemergence test; type: in vivo, Eleusin indica; conditions: 31 g ai/ha, Preemergence; scale 0 to 100
Text: as §2

[3] = Postemergence, 125 g ai/ha, 0 is no effect, 100 is complete control
[4] = Postemergence, 500 g ai/ha, 0 is no effect, 100 is complete control
[5] = Preemergence, 125 g ai/ha, 0 no effect, 100 complete control
[6] = Preemergence, 500 g ai/ha, 0 to 100 scale where 0 is no effect and 100 is complete control
[7] = 31 g ai/ha, Preemergence, scale 0 to 100
[8] = 62 g ai/ha, preemergence, scale 0 (no effect) to 100 (complete control)
[9] = preemergence, 125 g ai/ha, scale 0 (no effect) to 100 (complete control)

Cn1nc(C(F)(F)F)c(C[S+]([O-])c2ccc(Cl)c[n+]2[O-])c1OC(F)F (centres unmarked) [Compound 6]
Crabgrass, Large plant response rating (crabgrass; [3]): 70 | Crabgrass, Large plant response rating (crabgrass; [4]): 90 | Crabgrass, Large plant response rating (crabgrass; [5]): 100 | Plant response rating, Crabgrass, Large (crabgrass; [6]): 100 | Foxtail, Giant plant response rating (giant foxtail [1]; [3]): 70 | Foxtail, Giant plant response rating (giant foxtail [1]; [4]): 90 | Foxtail, Giant plant response rating (giant foxtail [1]; [5]): 100 | Plant response rating, Foxtail, Giant (giant foxtail [1]; [6]): 100 | Morningglory plant response rating (morningglory; [3]): 80 | Morningglory plant response rating (morningglory; [4]): 90 | Morningglory plant response rating (morningglory; [5]): 90 | Plant response rating, Morningglory (morningglory; [6]): 100 | Wheat plant response rating (wheat; [3]): 30 | Wheat plant response rating (wheat; [4]): 70 | Wheat plant response rating (wheat; [5]): 90 | Plant response rating, Wheat (wheat; [6]): 90 | Plant response rating (0 to 100), Bromegrass, Downy (downy brome; 31 g ai/ha): 0 | Plant response rating, Bromegrass, Downy (downy brome; 62 g ai/ha): 30 | Plant response rating, Bromegrass, Downy (downy brome; 125 g ai/ha): 50 | Plant response rating, Bromegrass, Downy (downy brome; 250 g ai/ha): 80 | Cocklebur plant response rating (cocklebur; [7]): 0 | Cocklebur plant response rating (cocklebur; [8]): 0 | Plant response rating (0 to 100), Cocklebur (cocklebur; Postemergence, 31 g ai/ha): 0 | Plant response rating, Cocklebur (cocklebur; Postemergence, 62 g ai/ha): 0 | Plant response rating, Cocklebur (cocklebur; Postemergence, 125 g ai/ha): 0 | Plant response rating, Cocklebur (cocklebur; Postemergence, 250 g ai/ha): 0 | Plant response rating (0 to 100), Cocklebur (cocklebur; Preemergence, 250 g ai/ha): 0 | Cocklebur plant response rating (cocklebur; [9]): 0 | Corn plant response rating (corn; [7]): 0 | Corn plant response rating (corn; [8]): 60 | Plant response rating (0 to 100), Corn (corn; Postemergence, 31 g ai/ha): 0 | Plant response rating, Corn (corn; Postemergence, 62 g ai/ha): 0 | Plant response rating, Corn (corn; Postemergence, 125 g ai/ha): 0 | Plant response rating, Corn (corn; Postemergence, 250 g ai/ha): 0 | Plant response rating (0 to 100), Corn (corn; Preemergence, 250 g ai/ha): 98 | Corn plant response rating (corn; [9]): 60 | Cupgrass, Woolly plant response rating (woolly cupgrass; [7]): 90 | Cupgrass, Woolly plant response rating (woolly cupgrass; [8]): 100 | Plant response rating (0 to 100), Cupgrass, Woolly (woolly cupgrass; Postemergence, 31 g ai/ha): 0 | Plant response rating, Cupgrass, Woolly (woolly cupgrass; Postemergence, 62 g ai/ha): 0 | Plant response rating, Cupgrass, Woolly (woolly cupgrass; Postemergence, 125 g ai/ha): 50 | Plant response rating, Cupgrass, Woolly (woolly cupgrass; Postemergence, 250 g ai/ha): 55 | Plant response rating (0 to 100), Cupgrass, Woolly (woolly cupgrass; Preemergence, 250 g ai/ha): 100 | Cupgrass, Woolly plant response rating (woolly cupgrass; [9]): 100 | Foxtail, Giant plant response rating (giant foxtail [2]; [7]): 50 | Foxtail, Giant plant response rating (giant foxtail [2]; [8]): 95 | Plant response rating (0 to 100), Foxtail, Giant (giant foxtail [2]; Postemergence, 31 g ai/ha): 0 | Plant response rating, Foxtail, Giant (giant foxtail [2]; Postemergence, 62 g ai/ha): 30 | Plant response rating, Foxtail, Giant (giant foxtail [2]; Postemergence, 125 g ai/ha): 60 | Plant response rating, Foxtail, Giant (giant foxtail [2]; Postemergence, 250 g ai/ha): 70 | Plant response rating (0 to 100), Foxtail, Giant (giant foxtail [2]; Preemergence, 250 g ai/ha): 100 | Foxtail, Giant plant response rating (giant foxtail [2]; [9]): 98 | Goosegrass plant response rating (Goosegrass): 98
